Read-outs that look alike come from different tables or passages of the source.
Experiments:
rat mGlu2 receptor = rat mGlu2 receptor (Rattus norvegicus (Rat), UniProt P31421); assay: mGlu2 in vitro GIRK thallium flux assay; assay type: cell-based; details: NAM, EC80 glutamate, HEK-293 GIRK cells
Method in brief: (§1)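 Cells expressing rat mGlu2 or mGlu3 with GIRK, plated overnight at 37 °C. Test compounds (0.3% DMSO, 10-point 1:3 series) preincubated 2.5 or 60 min, then thallium buffer plus EC80 glutamate added. Fluorescence slope 5–15 s after addition, normalised to vehicle and maximal agonist, fitted by four-parameter logistic.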

rat mGlu3 receptor = rat mGlu3 receptor (Rattus norvegicus (Rat), UniProt P31422); assay: mGlu3 in vitro GIRK thallium flux assay; assay type: cell-based; details: NAM; 2.5 min compound incubation; EC80 glutamate; HEK-293 GIRK cells
rat mGlu3 receptor, sequence (P31422 23-879): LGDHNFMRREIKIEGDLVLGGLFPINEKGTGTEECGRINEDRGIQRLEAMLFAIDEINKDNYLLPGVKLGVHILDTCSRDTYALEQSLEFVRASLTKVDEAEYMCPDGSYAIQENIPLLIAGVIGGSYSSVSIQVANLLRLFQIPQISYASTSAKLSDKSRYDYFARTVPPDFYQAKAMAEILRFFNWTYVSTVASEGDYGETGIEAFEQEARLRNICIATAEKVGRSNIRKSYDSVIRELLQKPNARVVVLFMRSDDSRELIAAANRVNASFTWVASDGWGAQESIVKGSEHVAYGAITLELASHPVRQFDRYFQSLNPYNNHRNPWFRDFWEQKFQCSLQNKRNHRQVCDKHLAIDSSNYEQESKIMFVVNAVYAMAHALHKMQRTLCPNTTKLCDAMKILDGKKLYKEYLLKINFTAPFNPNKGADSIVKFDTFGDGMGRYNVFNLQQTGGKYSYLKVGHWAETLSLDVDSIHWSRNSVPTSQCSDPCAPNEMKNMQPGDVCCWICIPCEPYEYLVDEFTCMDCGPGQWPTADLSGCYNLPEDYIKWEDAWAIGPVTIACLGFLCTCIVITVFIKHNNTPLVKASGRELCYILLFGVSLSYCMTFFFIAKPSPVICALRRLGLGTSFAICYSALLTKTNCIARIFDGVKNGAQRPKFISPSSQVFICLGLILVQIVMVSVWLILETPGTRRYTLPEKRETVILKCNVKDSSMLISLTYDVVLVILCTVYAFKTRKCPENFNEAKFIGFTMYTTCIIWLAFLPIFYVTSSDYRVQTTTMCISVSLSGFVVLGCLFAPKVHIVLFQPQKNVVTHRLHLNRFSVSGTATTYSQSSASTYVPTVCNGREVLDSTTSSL
Method in brief: as §1

[1] = 2.5 min compound incubation, read-out: mGlu2 EC50 (μM) (2.5 min)
[2] = read-out: mGlu2 EC50 (μM) (60 min), 60 min compound incubation
[3] = mGlu2 EC50 (μM) (60 min), 60 min compound incubation

rat mGlu2 receptor, sequence (P31421 19-872): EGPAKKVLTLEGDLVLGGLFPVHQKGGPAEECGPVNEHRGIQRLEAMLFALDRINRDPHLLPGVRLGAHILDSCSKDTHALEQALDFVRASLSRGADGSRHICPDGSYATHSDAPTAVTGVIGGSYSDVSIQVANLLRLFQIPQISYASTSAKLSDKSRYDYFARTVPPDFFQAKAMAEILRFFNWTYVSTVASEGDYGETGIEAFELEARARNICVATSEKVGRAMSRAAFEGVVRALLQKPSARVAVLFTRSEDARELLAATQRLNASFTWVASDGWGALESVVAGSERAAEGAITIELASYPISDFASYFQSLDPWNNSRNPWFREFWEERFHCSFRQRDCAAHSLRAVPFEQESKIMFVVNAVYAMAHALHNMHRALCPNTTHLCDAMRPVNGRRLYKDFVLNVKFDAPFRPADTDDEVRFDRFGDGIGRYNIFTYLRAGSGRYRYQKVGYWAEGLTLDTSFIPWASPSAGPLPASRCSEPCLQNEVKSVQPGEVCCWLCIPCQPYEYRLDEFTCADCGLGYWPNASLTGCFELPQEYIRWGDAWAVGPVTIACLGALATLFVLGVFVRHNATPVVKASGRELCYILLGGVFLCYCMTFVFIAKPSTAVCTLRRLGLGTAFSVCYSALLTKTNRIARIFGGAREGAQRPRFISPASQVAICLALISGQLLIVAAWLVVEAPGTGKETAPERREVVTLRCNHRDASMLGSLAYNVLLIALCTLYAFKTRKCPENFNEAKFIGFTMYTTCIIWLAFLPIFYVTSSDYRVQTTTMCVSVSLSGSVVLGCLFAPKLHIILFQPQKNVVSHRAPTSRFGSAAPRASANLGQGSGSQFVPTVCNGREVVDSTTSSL

`O=C(O)c1cc(F)cc(-c2cccc(-c3nc(-c4ccccc4)cc(C(F)(F)F)n3)c2)c1` [Example 104, 5-Fluoro-3′-(4-phenyl-6-(trifluoromethyl)pyrimidin-2-yl)biphenyl-3-carboxylic Acid] gave an EC50 (rat mGlu2 receptor; [1]) of 1.44 µM, an EC50 (rat mGlu2 receptor; [2]) of 0.24 µM and an EC50 (rat mGlu3 receptor) of 1.9 µM.
For `O=C(O)c1cc(-c2cccc(-c3nc(-c4cc(C(F)(F)F)cc(C(F)(F)F)c4)cc(C(F)(F)F)n3)c2)ccc1F` [Example 105, 3′-(4-(3,5-Bis(trifluoromethyl)phenyl)-6-(trifluoromethyl)pyrimidin-2-yl)-4-fluorobiphenyl-3-carboxylic Acid], the EC50 (rat mGlu2 receptor; [1]) was over 10 µM, the EC50 (rat mGlu2 receptor; [2]) was 3.19 µM and the EC50 (rat mGlu3 receptor) was over 10 µM.
Work on `O=C(O)c1cc(-c2cccc(-c3nc(-c4ccc[nH]4)cc(C(F)(F)F)n3)c2)ccc1F` [Example 106, 3′-(4-(1H-Pyrrol-2-yl)-6-(trifluoromethyl)pyrimidin-2-yl)-4-fluorobiphenyl-3-carboxylic Acid] yielded an EC50 (rat mGlu2 receptor; [1]) of 1.19 µM, an EC50 (rat mGlu2 receptor; [2]) of 1.42 µM and an EC50 (rat mGlu3 receptor) of 5.06 µM.
Compound `O=C(O)c1cc(-c2cccc(-c3nc(-c4sccc4Cl)cc(C(F)(F)F)n3)c2)ccc1F` [Example 107, 3′-(4-(3-Chlorothiophen-2-yl)-6-(trifluoromethyl)pyrimidin-2-yl)-4-fluorobiphenyl-3-carboxylic Acid] has an EC50 (rat mGlu2 receptor; [1]) of 4.53 µM and an EC50 (rat mGlu3 receptor) of over 10 µM.
`O=C(O)c1cc(-c2cccc(-c3nc(-c4ccc(C(F)(F)F)cc4)cc(C(F)(F)F)n3)c2)ccc1F` [Example 108, 4-Fluoro-3′-(4-(trifluoromethyl)-6-(4-(trifluoromethyl)phenyl)pyrimidin-2-yl)biphenyl-3-carboxylic Acid] showed an EC50 (rat mGlu2 receptor; [1]) of 1.5 µM and an EC50 (rat mGlu3 receptor) of 1.49 µM.
In the case of `O=C(O)c1cc(-c2cccc(-c3nc(-c4nccs4)cc(C(F)(F)F)n3)c2)ccc1F` [Example 109, 4-Fluoro-3′-(4-(thiazol-2-yl)-6-(trifluoromethyl)pyrimidin-2-yl)biphenyl-3-carboxylic Acid], the EC50 (rat mGlu2 receptor; [1]) is reported as 1.34 µM, the EC50 (rat mGlu2 receptor; [2]) is reported as 0.297 µM and the EC50 (rat mGlu3 receptor) is reported as 2.13 µM.
`O=C(O)c1cc(-c2cccc(-c3nc(-c4ccc(Cl)cc4F)cc(C(F)(F)F)n3)c2)ccc1F` [Example 110, 3′-(4-(4-Chloro-2-fluorophenyl)-6-(trifluoromethyl)pyrimidin-2-yl)-4-fluorobiphenyl-3-carboxylic Acid] showed an EC50 (rat mGlu2 receptor; [1]) of 4.08 µM, an EC50 (rat mGlu2 receptor; [2]) of 0.65 µM and an EC50 (rat mGlu3 receptor) of 5.34 µM.
For `Cc1noc(C)c1-c1cc(C(F)(F)F)nc(-c2cccc(-c3ccc(F)c(C(=O)O)c3)c2)n1` [Example 111, 3′-(4-(3,5-Dimethylisoxazol-4-yl)-6-(trifluoromethyl)pyrimidin-2-yl)-4-fluorobiphenyl-3-carboxylic Acid], the EC50 (rat mGlu2 receptor; [1]) was over 10 µM, the EC50 (rat mGlu2 receptor; [2]) was over 10 µM and the EC50 (rat mGlu3 receptor) was over 10 µM.
`Cc1ccc(-c2cc(C(F)(F)F)nc(-c3cccc(-c4ccc(F)c(C(=O)O)c4)c3)n2)s1` [Example 112, 4-Fluoro-3′-(4-(5-methylthiophen-2-yl)-6-(trifluoromethyl)pyrimidin-2-yl)biphenyl-3-carboxylic Acid] gave an EC50 (rat mGlu2 receptor; [1]) of 3.19 µM, an EC50 (rat mGlu2 receptor; [2]) of 0.75 µM and an EC50 (rat mGlu3 receptor) of 3.14 µM.
For `O=C(O)c1cc(F)cc(-c2cccc(-c3nc(-c4ccoc4)cc(C(F)(F)F)n3)c2)c1` [Example 113, 5-Fluoro-3′-(4-(furan-3-yl)-6-(trifluoromethyl)pyrimidin-2-yl)biphenyl-3-carboxylic Acid], the EC50 (rat mGlu2 receptor; [1]) was 0.4 µM, the EC50 (rat mGlu2 receptor; [2]) was 0.23 µM and the EC50 (rat mGlu3 receptor) was 1.15 µM.
With `O=C(O)c1cccc(-c2cccc(-c3nc(-c4ccoc4)cc(C(F)(F)F)n3)c2)c1` [Example 115, 3′-(4-(Furan-3-yl)-6-(trifluoromethyl)pyrimidin-2-yl)biphenyl-3-carboxylic acid] the EC50 (rat mGlu2 receptor; [1]) was 0.28 µM, the EC50 (rat mGlu2 receptor; [2]) was 0.12 µM and the EC50 (rat mGlu3 receptor) was 0.96 µM.
Compound `O=C(O)c1cc(-c2cccc(-c3nc(-c4cccnc4)cc(C(F)(F)F)n3)c2)ccc1F` [Example 116, 4-Fluoro-3′-(4-(pyridin-3-yl)-6-(trifluoromethyl)pyrimidin-2-yl)biphenyl-3-carboxylic Acid] has an EC50 (rat mGlu2 receptor; [1]) of 2.11 µM, an EC50 (rat mGlu2 receptor; [2]) of 0.27 µM and an EC50 (rat mGlu3 receptor) of 8.58 µM.
In the case of `Cc1cc(-c2ccoc2)nc(-c2cccc(-c3ccc(F)c(C(=O)O)c3)c2)n1` [Example 117, 4-Fluoro-3′-(4-(furan-3-yl)-6-methylpyrimidin-2-yl)biphenyl-3-carboxylic acid], the EC50 (rat mGlu2 receptor; [1]) is reported as 0.08 µM, the EC50 (rat mGlu2 receptor; [2]) is reported as 0.07 µM and the EC50 (rat mGlu3 receptor) is reported as 0.28 µM.
In the case of `O=C(O)c1cc(-c2cccc(-c3nccc(-c4ccoc4)n3)c2)ccc1F` [Example 118, 4-Fluoro-3′-(4-(furan-3-yl)pyrimidin-2-yl)biphenyl-3-carboxylic Acid], the EC50 (rat mGlu2 receptor; [1]) is reported as 0.26 µM, the EC50 (rat mGlu2 receptor; [2]) is reported as 1.01 µM and the EC50 (rat mGlu3 receptor) is reported as 1.38 µM.
Work on `Cc1cc(-c2ccoc2)nc(-c2cccc(-c3cccc(C(=O)O)c3)c2)n1` [Example 119, 3′-(4-(Furan-3-yl)-6-methylpyrimidin-2-yl)biphenyl-3-carboxylic Acid] yielded an EC50 (rat mGlu2 receptor; [1]) of 0.05 µM, an EC50 (rat mGlu2 receptor; [2]) of 0.06 µM and an EC50 (rat mGlu3 receptor) of 0.35 µM.
Compound `COc1ccc(-c2cc(C(F)(F)F)nc(-c3cccc(-c4ccc(F)c(C(=O)O)c4)c3)n2)cn1` [Example 120, 4-Fluoro-3′-(4-(6-methoxypyridin-3-yl)-6-(trifluoromethyl)pyrimidin-2-yl)-[1,1′-biphenyl]-3-carboxylic Acid] has an EC50 (rat mGlu2 receptor; [1]) of 1.43 µM, an EC50 (rat mGlu2 receptor; [2]) of 0.35 µM and an EC50 (rat mGlu3 receptor) of 1.41 µM.
In the case of `Cc1cc(-c2ccoc2)nc(-c2cccc(-c3cc(F)cc(C(=O)O)c3)c2)n1` [Example 121, 5-Fluoro-3′-(4-(furan-3-yl)-6-methylpyrimidin-2-yl)-[1,1′-biphenyl]-3-carboxylic Acid], the EC50 (rat mGlu2 receptor; [1]) is reported as 0.35 µM, the EC50 (rat mGlu2 receptor; [3]) is reported as 0.31 µM and the EC50 (rat mGlu3 receptor) is reported as 2.21 µM.
`FC(F)(F)c1ccc(-c2cc(C(F)(F)F)nc(-c3cccc(-c4cccc(-c5nn[nH]n5)c4)c3)n2)cn1` [Example 123, 2-(3′-(2H-Tetrazol-5-yl)biphenyl-3-yl)-4-(trifluoromethyl)-6-(6-(trifluoromethyl)pyridin-3-yl)pyrimidine] gave an EC50 (rat mGlu2 receptor; [1]) of 0.75 µM, an EC50 (rat mGlu2 receptor; [2]) of 0.43 µM and an EC50 (rat mGlu3 receptor) of 2.39 µM.
`NS(=O)(=O)c1cccc(-c2cn(-c3nc(-c4ccc(C(F)(F)F)nc4)cc(C(F)(F)F)n3)cn2)c1` [Example 125, 3-(1-(4-(Trifluoromethyl)-6-(6-(trifluoromethyl)pyridin-3-yl)pyrimidin-2-yl)-1H-imidazol-4-yl)benzenesulfonamide] gave an EC50 (rat mGlu2 receptor; [1]) of over 10 µM, an EC50 (rat mGlu2 receptor; [2]) of over 10 µM and an EC50 (rat mGlu3 receptor) of over 30 µM.
`Nc1cccc(-c2cn(-c3nc(-c4ccc(C(F)(F)F)nc4)cc(C(F)(F)F)n3)cn2)c1` [Example 126, 3-(1-(4-(Trifluoromethyl)-6-(6-(trifluoromethyl)pyridin-3-yl)pyrimidin-2-yl)-1H-imidazol-4-yl)aniline] showed an EC50 (rat mGlu2 receptor; [1]) of over 30 µM, an EC50 (rat mGlu2 receptor; [2]) of over 10 µM and an EC50 (rat mGlu3 receptor) of over 30 µM.
`O=C(O)c1cc(-c2cccc(Nc3nc(-c4ccco4)cc(C(F)(F)F)n3)c2)ccc1F` [Example 127, 4-Fluoro-3′-(4-(furan-2-yl)-6-(trifluoromethyl)pyrimidin-2-ylamino)biphenyl-3-carboxylic Acid] showed an EC50 (rat mGlu2 receptor; [1]) of 5.33 µM, an EC50 (rat mGlu2 receptor; [2]) of over 10 µM and an EC50 (rat mGlu3 receptor) of 3.9 µM.
`O=C(O)c1cc(-c2cccc(Oc3nc(-c4ccco4)cc(C(F)(F)F)n3)c2)ccc1F` [Example 128, 4-Fluoro-3′-(4-(furan-2-yl)-6-(trifluoromethyl)pyrimidin-2-yloxy)biphenyl-3-carboxylic Acid] gave an EC50 (rat mGlu2 receptor; [1]) of over 30 µM, an EC50 (rat mGlu2 receptor; [2]) of over 30 µM and an EC50 (rat mGlu3 receptor) of over 30 µM.
For `O=C(O)c1cc(-c2cccc(Sc3nc(-c4ccco4)cc(C(F)(F)F)n3)c2)ccc1F` [Example 129, 4-Fluoro-3′-(4-(furan-2-yl)-6-(trifluoromethyl)pyrimidin-2-ylthio)biphenyl-3-carboxylic Acid], the EC50 (rat mGlu2 receptor; [1]) was over 10 µM, the EC50 (rat mGlu2 receptor; [2]) was 3.25 µM and the EC50 (rat mGlu3 receptor) was over 10 µM.
Work on `Fc1ccc(C#Cc2cccc(-c3nc(-c4ccc(C(F)(F)F)nc4)cc(C(F)(F)F)n3)c2)cc1` [Example 130, 2-(3-((4-Fluorophenyl)ethynyl)phenyl)-4-(trifluoromethyl)-6-(6-(trifluoromethyl)pyridin-3-yl)pyrimidine] yielded an EC50 (rat mGlu2 receptor; [1]) of over 30 µM, an EC50 (rat mGlu2 receptor; [2]) of over 10 µM and an EC50 (rat mGlu3 receptor) of over 30 µM.
With `O=C(NO)c1cc(-c2cccc(-c3nc(-c4ccoc4)cc(C(F)(F)F)n3)c2)ccc1F` [Example 131, 4-Fluoro-3′-(4-(furan-3-yl)-6-(trifluoromethyl)pyrimidin-2-yl)-N-hydroxy-[1,1′-biphenyl]-3-carboxamide] the EC50 (rat mGlu2 receptor; [1]) was over 10 µM, the EC50 (rat mGlu2 receptor; [2]) was 3.36 µM and the EC50 (rat mGlu3 receptor) was over 10 µM.
With `CONC(=O)c1cc(-c2cccc(-c3nc(-c4ccoc4)cc(C(F)(F)F)n3)c2)ccc1F` [Example 132, 4-Fluoro-3′-(4-(furan-3-yl)-6-(trifluoromethyl)pyrimidin-2-yl)-N-methoxy-[1,1′-biphenyl]-3-carboxamide] the EC50 (rat mGlu2 receptor; [1]) was over 10 µM, the EC50 (rat mGlu2 receptor; [2]) was 7.1 µM and the EC50 (rat mGlu3 receptor) was 5.26 µM.
`Cc1cc2c(cc1C(F)(F)F)NC(=O)CC(c1cccc(Oc3ccccc3)c1)=N2` [Example 143, 7-Methyl-4-(3-phenoxyphenyl)-8-(trifluoromethyl)-1H-benzo[b][1, 4]diazepin-2 (3H)-one] showed an EC50 (rat mGlu2 receptor; [1]) of 2.21 µM, an EC50 (rat mGlu2 receptor; [3]) of 1.19 µM and an EC50 (rat mGlu3 receptor) of 2.62 µM.
For `Cc1cc2c(cc1C(F)(F)F)NC(=O)CC(c1cccc(OCc3ccccc3)c1)=N2` [Example 144, 4-(3-(Benzyloxy)phenyl)-7-methyl-8-(trifluoromethyl)-1H-benzo[b][1,4]diazepin-2(3H)-one], the EC50 (rat mGlu2 receptor; [1]) was over 10 µM, the EC50 (rat mGlu2 receptor; [3]) was 2.36 µM and the EC50 (rat mGlu3 receptor) was 2.93 µM.
`Cc1cc2c(cc1C(F)(F)F)NC(=O)CC(c1cccc(Oc3cccc(Br)c3)c1)=N2` [Example 145, 4-(3-(3-Bromophenoxy)phenyl)-7-methyl-8-(trifluoromethyl)-1H-benzo[b][1,4]diazepin-2(3H)-one] gave an EC50 (rat mGlu2 receptor; [1]) of over 10 µM, an EC50 (rat mGlu2 receptor; [2]) of over 10 µM and an EC50 (rat mGlu3 receptor) of over 10 µM.

Source: patent US9969726B2, “Metabotropic glutamate receptor negative allosteric modulators (NAMS) and uses thereof” (Sanford-Burnham Medical Research Institute, priority 2014, dated 2018)
